Results: patent US8663669B2, “Pesticide treatment of soils or substrates with sulphur compounds” (Arkema France, priority 2002, dated 2014)

How the values were obtained:
[1] = tested on: termite (Reticulitermes santonensis); experiment: Insecticidal in vitro fumigation test on termites; format: in vivo; settings: 24 hours of fumigation, mortality counted at the end of 48 hours; 25° C.
Description: Dead wood infested with termites was collected from the soil on ground occupied by a colony. This dead wood serves as breeding medium. The breeding is maintained at a constant 25° C. and a day/night 12:12 alternation.
The insects are removed in an amount of 2 soldiers per 28 workers.
The tests are carried out in hermetically closed glass jars having a volume of 3 L and containing the insects.
The product to be tested is introduced through a hole 2 mm in diameter with the aid of a micropipette and deposited on a filter paper (2×5 cm: Whatman No. 1) suspended at the centre of the jar where it migrates by capillarity and vaporizes rapidly. The hole is hermetically closed again as quickly as possible.
The jars are placed for 24 hours in an incubator under the same breeding conditions.
At the end of 24 hours, after a few instants of aeration, a first count is made and then the insects are placed again under breeding conditions for another 24 hours. The counting of the mortality is therefore carried out at the end of 48 hours. […] Each test is carried out on a population of 30 to 50 insects and is accompanied by a control without treatment. Several repeats are carried out with doses close to the LC50.

[2] = tested on: larvae of Meloidogyne arenaria; experiment: Nematicidal in vitro test on second-stage juvenile larvae; format: in vivo; settings: for Immobility rate after 48 h: 24 h in solution then 24 h in pure water; for Immobility rate after 24 h: aqueous solution
Description: The second-stage juvenile larvae (the free and infesting stage) are immersed for 24 hours in the test solution and then the number of larvae paralysed are counted before transferring them into pure water for another 24 hours. At the end of the 48 hours which have thus elapsed, the larvae paralysed are again counted and the larvae truly dead are counted the next day.
The breeding of the nematodes was carried out on tomato plants. The tests were carried out with, aqueous solutions of DMDS at 0.0001%, 0.1%, 1% and 5% by mass, of DPDS at 1%, 5% and 10% by mass, and of allicin at 0.0003%, 0.0015% and 0.003% by mass, compared with a control consisting of pure water, and repeated five times. The ovicidal activity was also evaluated according to the same modalities, by counting the number of hatchings after 5 to 20 days following exposure to the products.

CSSC [DMDS, dimethyl disulphide]
LC50 (Probits method) [1]: 0.095 g × 24 h/m^3 | Mortality rate after 72 h ([2]; concentration by mass 1 %): 80% | Immobility rate after 48 h ([2]; concentration by mass 1 %): 84% | Immobility rate after 24 h ([2]; concentration by mass 1 %): 72% | Mortality rate after 72 h ([2]; concentration by mass 5 %): 98% | Immobility rate after 48 h ([2]; concentration by mass 5 %): 98% | Immobility rate after 24 h ([2]; concentration by mass 5 %): 97% | Nematostatic and nematicidal activity ([2]; concentration of greater than or equal to 1%): high nematostatic and nematicidal activity | Nematicidal activity ([2]; concentration of less than 1%): no nematicidal activity | Nematostatic activity ([2]; concentration of less than 1%): very weak nematostatic activity
